Laboratory results as given in patent publication US6872729B2, “Pyrimidinylbenzimidazole and triazinylbenzimidazole derivatives and agricultural/horticultural fungicides” (Kumiai Chemical Industry Co., Ltd., priority 1998, dated 2005).

The compounds below were run on Erysiphe graminis (assay: Test for preventive effect on wheat powdery mildew). Conditions: wheat (Norin-61-go) seedlings, 500 ppm active ingredient, preventive treatment; diseased area of first leaves 10 days after inoculation with Erysiphe graminis.
Assay type: in vivo
Protocol: Test for Preventive Effect on Wheat Powdery Mildew 9 Wheat seeds (variety: Norin-61-go) were sown in each 9 cm×9 cm polyvinyl chloride pot, grown in a greenhouse for 8 days, then treated with 10 ml per pot of aqueous solutions of wettable powders prepared in accordance with Formulation Example 2, at a concentration of 500 ppm in terms of the active ingredients and dried in the air. Then, the seedlings were inoculated with Erysiphe graminis spores by sprinkle over the plant and placed in a greenhouse of from 20 to 25° C. 10 days after the inoculation, the total diseases area of the first leaves in each pot was observed and evaluated on the basis of the standards shown in Table 67. [table]

| Structure (SMILES) | Biological effectiveness |
| --- | --- |
| COc1cc(OC)nc(-n2cnc3ccccc32)n1 [Compound I-1] | A (No diseased area) |
| COc1cc(OC)nc(-n2c(Cl)nc3ccccc32)n1 [Compound I-2] | A (No diseased area) |
| COc1cc(OC)nc(-n2c(Br)nc3ccccc32)n1 [Compound I-3] | A (No diseased area) |
| COc1cc(OC)nc(-n2c(C)nc3ccccc32)n1 [Compound I-6] | B (Diseased area of less than 25%) |
| CCc1nc2ccccc2n1-c1nc(OC)cc(OC)n1 [Compound I-7] | A (No diseased area) |
| COc1cc(OC)nc(-n2c(C3CC3)nc3ccccc32)n1 [Compound I-10] | B (Diseased area of less than 25%) |
| CCOCc1nc2ccccc2n1-c1nc(OC)cc(OC)n1 [Compound I-22] | A (No diseased area) |
| COc1cc(OC)nc(-n2c(CCl)nc3ccccc32)n1 [Compound I-23] | A (No diseased area) |
| COc1cc(OC)nc(-n2c(C(Cl)(Cl)Cl)nc3ccccc32)n1 [Compound I-25] | A (No diseased area) |
| COc1cc(OC)nc(-n2c(C(F)(F)F)nc3ccccc32)n1 [Compound I-26] | A (No diseased area) |
| COc1cc(OC)nc(-n2c(C(F)(F)C(F)(F)F)nc3ccccc32)n1 [Compound I-27] | B (Diseased area of less than 25%) |
| CNc1nc2ccccc2n1-c1nc(OC)cc(OC)n1 [Compound I-29] | B (Diseased area of less than 25%) |
| COc1cc(OC)nc(-n2c(N(C)C)nc3ccccc32)n1 [Compound I-30] | B (Diseased area of less than 25%) |
| COc1cc(OC)nc(-n2c(-c3ccc(Cl)cc3)nc3ccccc32)n1 [Compound I-35] | B (Diseased area of less than 25%) |
| COc1cc(OC)nc(-n2c(C#N)nc3ccccc32)n1 [Compound I-38] | B (Diseased area of less than 25%) |
| COc1nc(OC)nc(-n2cnc3ccccc32)n1 [Compound I-40] | B (Diseased area of less than 25%) |
| COc1nc(OC)nc(-n2c(Cl)nc3ccccc32)n1 [Compound I-41] | A (No diseased area) |
| COc1nc(OC)nc(-n2c(C)nc3ccccc32)n1 [Compound I-45] | A (No diseased area) |
| COc1nc(OC)nc(-n2c(C(F)(F)F)nc3ccccc32)n1 [Compound I-66] | A (No diseased area) |
| COc1cc(OC)nc(-n2cnc3cc(F)ccc32)n1 [Compound I-82] | A (No diseased area) |
| COc1cc(OC)nc(-n2cnc3cc(Cl)ccc32)n1 [Compound I-83] | B (Diseased area of less than 25%) |
| COc1cc(OC)nc(-n2cnc3cc(Br)ccc32)n1 [Compound I-84] | A (No diseased area) |
| COc1cc(OC)nc(-n2cnc3cc(C)ccc32)n1 [Compound I-85] | A (No diseased area) |
| COc1cc(OC)nc(-n2cnc3cc(C(F)(F)F)ccc32)n1 [Compound I-87] | A (No diseased area) |

| Structure (SMILES) | Biological effectiveness |
| --- | --- |
| COc1ccc2c(c1)ncn2-c1nc(OC)cc(OC)n1 [Compound I-88] | B (Diseased area of less than 25%) |
| COc1cc(OC)nc(-n2cnc3cc(OC(F)(F)F)ccc32)n1 [Compound I-91] | B (Diseased area of less than 25%) |
| COc1cc(OC)nc(-n2cnc3cc(C#N)ccc32)n1 [Compound I-111] | B (Diseased area of less than 25%) |
| COc1cc(OC)nc(-n2cnc3ccc(F)cc32)n1 [Compound I-112] | B (Diseased area of less than 25%) |
| COc1cc(OC)nc(-n2cnc3ccc(Cl)cc32)n1 [Compound I-113] | B (Diseased area of less than 25%) |
| COc1cc(OC)nc(-n2cnc3ccc(C)cc32)n1 [Compound I-114] | B (Diseased area of less than 25%) |
| COc1ccc2ncn(-c3nc(OC)cc(OC)n3)c2c1 [Compound I-116] | B (Diseased area of less than 25%) |
| COc1cc(OC)nc(-n2cnc3cc(C)c(C)cc32)n1 [Compound I-122] | B (Diseased area of less than 25%) |
| COc1nc(OC)nc(-n2cnc3cc(Cl)ccc32)n1 [Compound I-130] | A (No diseased area) |
| COc1nc(OC)nc(-n2cnc3cc(Br)ccc32)n1 [Compound I-131] | A (No diseased area) |
| COc1nc(OC)nc(-n2cnc3cc(I)ccc32)n1 [Compound I-132] | A (No diseased area) |
| COc1nc(OC)nc(-n2cnc3cc(C)ccc32)n1 [Compound I-133] | A (No diseased area) |
| CCc1ccc2c(c1)ncn2-c1nc(OC)nc(OC)n1 [Compound I-134] | A (No diseased area) |
| CCCc1ccc2c(c1)ncn2-c1nc(OC)nc(OC)n1 [Compound I-135] | A (No diseased area) |
| COc1nc(OC)nc(-n2cnc3cc(C(C)C)ccc32)n1 [Compound I-136] | B (Diseased area of less than 25%) |
| COc1ccc2c(c1)ncn2-c1nc(OC)nc(OC)n1 [Compound I-141] | A (No diseased area) |
| COc1nc(OC)nc(-n2cnc3cc(Cl)c(Cl)cc32)n1 [Compound I-175] | A (No diseased area) |
| COc1nc(OC)nc(-n2cnc3cc(C)c(C)cc32)n1 [Compound I-176] | A (No diseased area) |
| COc1cc(OC)nc(-n2c(C)nc3c(C)cccc32)n1 [Compound I-181] | B (Diseased area of less than 25%) |
| COc1cc(OC)nc(-n2c(C)nc3cc(F)ccc32)n1 [Compound I-183] | B (Diseased area of less than 25%) |
| COc1cc(OC)nc(-n2c(C)nc3cc(Cl)ccc32)n1 [Compound I-184] | A (No diseased area) |
| COc1cc(OC)nc(-n2c(C)nc3cc(Br)ccc32)n1 [Compound I-185] | A (No diseased area) |
| COc1cc(OC)nc(-n2c(C)nc3cc(C(F)(F)F)ccc32)n1 [Compound I-188] | A (No diseased area) |
| COc1ccc2c(c1)nc(C)n2-c1nc(OC)cc(OC)n1 [Compound I-189] | A (No diseased area) |

| Structure (SMILES) | Biological effectiveness |
| --- | --- |
| COc1cc(OC)nc(-n2c(C)nc3cc(OC(F)(F)F)ccc32)n1 [Compound I-192] | B (Diseased area of less than 25%) |
| COc1cc(OC)nc(-n2c(C)nc3cc(C(=O)c4ccccc4)ccc32)n1 [Compound I-195] | B (Diseased area of less than 25%) |
| COc1cc(OC)nc(-n2c(C)nc3cc(C#N)ccc32)n1 [Compound I-199] | B (Diseased area of less than 25%) |
| COc1cc(OC)nc(-n2c(C)nc3ccc(F)cc32)n1 [Compound I-200] | A (No diseased area) |
| COc1cc(OC)nc(-n2c(C)nc3ccc(Cl)cc32)n1 [Compound I-201] | A (No diseased area) |
| COc1cc(OC)nc(-n2c(C)nc3ccc(C)cc32)n1 [Compound I-202] | B (Diseased area of less than 25%) |
| COc1cc(OC)nc(-n2c(C)nc3ccc(C(F)(F)F)cc32)n1 [Compound I-203] | B (Diseased area of less than 25%) |
| COc1ccc2nc(C)n(-c3nc(OC)cc(OC)n3)c2c1 [Compound I-204] | A (No diseased area) |
| COc1cc(OC)nc(-n2c(C)nc3ccc(C(=O)c4ccccc4)cc32)n1 [Compound I-208] | B (Diseased area of less than 25%) |
| COc1cc(OC)nc(-n2c(C)nc3cc(Cl)c(Cl)cc32)n1 [Compound I-209] | B (Diseased area of less than 25%) |
| COc1nc(OC)nc(-n2c(C)nc3c(C)cccc32)n1 [Compound I-212] | B (Diseased area of less than 25%) |
| COc1nc(OC)nc(-n2c(C)nc3cc(F)ccc32)n1 [Compound I-214] | A (No diseased area) |
| COc1nc(OC)nc(-n2c(C)nc3cc(Br)ccc32)n1 [Compound I-216] | A (No diseased area) |
| COc1nc(OC)nc(-n2c(C)nc3cc(I)ccc32)n1 [Compound I-217] | A (No diseased area) |
| COc1nc(OC)nc(-n2c(C)nc3cc(C)ccc32)n1 [Compound I-218] | A (No diseased area) |
| CCc1ccc2c(c1)nc(C)n2-c1nc(OC)nc(OC)n1 [Compound I-219] | A (No diseased area) |
| CCCc1ccc2c(c1)nc(C)n2-c1nc(OC)nc(OC)n1 [Compound I-220] | B (Diseased area of less than 25%) |
| COc1nc(OC)nc(-n2c(C)nc3cc(C(C)C)ccc32)n1 [Compound I-221] | B (Diseased area of less than 25%) |
| COc1nc(OC)nc(-n2c(C)nc3cc(C(C)(C)C)ccc32)n1 [Compound I-222] | B (Diseased area of less than 25%) |
| COc1nc(OC)nc(-n2c(C)nc3cc(C(F)(F)F)ccc32)n1 [Compound I-225] | A (No diseased area) |
| COc1ccc2c(c1)nc(C)n2-c1nc(OC)nc(OC)n1 [Compound I-226] | A (No diseased area) |
| COc1nc(OC)nc(-n2c(C)nc3cc(OC(F)(F)F)ccc32)n1 [Compound I-229] | A (No diseased area) |
| COC(=O)c1ccc2c(c1)nc(C)n2-c1nc(OC)nc(OC)n1 [Compound I-232] | B (Diseased area of less than 25%) |
| COc1nc(OC)nc(-n2c(C)nc3cc(C(C)=O)ccc32)n1 [Compound I-234] | A (No diseased area) |
